Assay results taken from patent publication US12077503B2, “Substituted cyclic amides and their use as herbicides” (FMC CORPORATION, priority 2015, dated 2024).

Experiments:
Type in all cases: in vivo
[1] = test system: barnyardgrass (Echinochloa crus-galli); assay: Test A preemergence; conditions: for Plant response rating, Barnyardgrass: 125 g ai/ha, preemergence, 0 to 100 scale (0 no effect, 100 complete control); for Barnyardgrass plant response rating (0 to 100 scale): Preemergence, 500 g ai/ha, 0 is no effect, 100 is complete control
Outline: (§1)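 Visual injury scores from 0, no effect, to 100, complete control, were assigned versus untreated controls roughly 10 d after treatment in the greenhouse. Test chemicals, formulated with surfactant in a non-phytotoxic solvent, were applied to planted seeds as a preemergence soil spray or postemergence to one- to two-leaf plants 2 to 10 cm tall, in loam–sand soil.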

corn (Zea mays) [2] = assay: Test A preemergence; conditions: for Plant response rating, Corn: 125 g ai/ha, preemergence, 0 to 100 scale (0 no effect, 100 complete control); for Corn plant response rating (0 to 100 scale): Preemergence, 500 g ai/ha, 0 is no effect, 100 is complete control
Outline: as §1

[3] = test system: crabgrass, large (Digitaria sanguinalis); assay: Test A preemergence; conditions: for Plant response rating, Crabgrass, Large: 125 g ai/ha, preemergence, 0 to 100 scale (0 no effect, 100 complete control); for Crabgrass, Large plant response rating (0 to 100 scale): Preemergence, 500 g ai/ha, 0 is no effect, 100 is complete control
Outline: as §1

[4] = test system: giant foxtail (Setaria faberii); assay: Test A preemergence; conditions: for Plant response rating, Foxtail, Giant: 125 g ai/ha, preemergence, 0 to 100 scale (0 no effect, 100 complete control); for Foxtail, Giant plant response rating (0 to 100 scale): Preemergence, 500 g ai/ha, 0 is no effect, 100 is complete control
Outline: as §1

[5] = test system: morningglory (Ipomoea spp.); assay: Test A preemergence
Outline: as §1

[6] = test system: pigweed (Amaranthus retroflexus); assay: Test A preemergence; conditions: for Plant response rating, Pigweed: 125 g ai/ha, preemergence, 0 to 100 scale (0 no effect, 100 complete control); for Pigweed plant response rating (0 to 100 scale): Preemergence, 500 g ai/ha, 0 is no effect, 100 is complete control
[7] = test system: velvetleaf (Abutilon theophrasti); assay: Test A preemergence; conditions: for Plant response rating, Velvetleaf: 125 g ai/ha, preemergence, 0 to 100 scale (0 no effect, 100 complete control); for Velvetleaf plant response rating (0 to 100 scale): Preemergence, 500 g ai/ha, 0 is no effect, 100 is complete control
Outline: as §1

[8] = test system: wheat (Triticum aestivum); assay: Test A preemergence; conditions: for Plant response rating, Wheat: 125 g ai/ha, preemergence, 0 to 100 scale (0 no effect, 100 complete control); for Wheat plant response rating (0 to 100 scale): Preemergence, 500 g ai/ha, 0 is no effect, 100 is complete control
Outline: as §1

[9] = test system: barnyardgrass (Echinochloa crus-galli); assay: Test A postemergence
Outline: as §1

corn (Zea mays) [10] = assay: Test A postemergence
Outline: as §1

[11] = test system: crabgrass, large (Digitaria sanguinalis); assay: Test A postemergence
Outline: as §1

[12] = test system: giant foxtail (Setaria faberii); assay: Test A postemergence
Outline: as §1

[13] = test system: morningglory (Ipomoea spp.); assay: Test A postemergence
Outline: as §1

[14] = test system: pigweed (Amaranthus retroflexus); assay: Test A postemergence
Outline: as §1

[15] = test system: velvetleaf (Abutilon theophrasti); assay: Test A postemergence
Outline: as §1

[16] = test system: wheat (Triticum aestivum); assay: Test A postemergence
Outline: as §1

[17] = test system: barnyardgrass (Echinochloa crus-galli); assay: Test B flooded paddy test; conditions: Flood, 250 g ai/ha; 0 to 100 scale where 0 is no effect and 100 is complete control; 13 to 15 d
Outline: (§2)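 Compound goes directly into floodwater once pots are flooded 3 cm above soil, targeting plants at two leaves; the water depth is then held for the test duration. Plants sit 13–15 d in a greenhouse and are rated visually, 100 denoting complete control.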

[18] = test system: ducksalad (Heteranthera limosa); assay: Test B flooded paddy test; conditions: Flood, 250 g ai/ha; 0 to 100 scale where 0 is no effect and 100 is complete control; 13 to 15 d
Outline: as §2

rice (Oryra sativa) = assay: Test B flooded paddy test; conditions: Flood, 250 g ai/ha; 0 to 100 scale where 0 is no effect and 100 is complete control; 13 to 15 d
Outline: as §2

[19] = test system: sedge, umbrella (small-flower umbrella sedge, Cyperus difformis); assay: Test B flooded paddy test; conditions: Flood, 250 g ai/ha; 0 to 100 scale where 0 is no effect and 100 is complete control; 13 to 15 d
Outline: as §2

[20] = test system: barnyardgrass (Echinochloa crus-galli); assay: Test C flooded paddy test; conditions: Flood, 0 is no effect, 100 is complete control
Outline: (§3)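 Compound was added directly to paddy water held 3 cm above the soil, with plants at the 2-leaf stage. Injury was scored visually versus untreated controls after 13–15 d greenhouse growth, using a 0–100 scale where 100 means complete control.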

[21] = test system: ducksalad (Heteranthera limosa); assay: Test C flooded paddy test; conditions: Flood, 0 is no effect, 100 is complete control
Outline: as §3

rice (Oryza sativa) = assay: Test C flooded paddy test; conditions: Flood, 0 is no effect, 100 is complete control
Outline: as §3

[22] = test system: sedge, umbrella (small-flower umbrella sedge, Cyperus difformis); assay: Test C flooded paddy test; conditions: Flood, 0 is no effect, 100 is complete control
Outline: as §3

[23] = 500 g ai/ha, postemergence, 0 to 100 scale, 0 no effect, 100 complete control
[24] = Postemergence, 125 g ai/ha, visual injury, 0 to 100 scale (0 no effect, 100 complete control), approx. 10 d

Nc1cccc(C2CNC(=O)C2C(=O)Nc2cccc(F)c2F)c1 (stereo not shown) [Compound 353]
0: Plant response rating, Barnyardgrass [1] | Barnyardgrass plant response rating (0 to 100 scale) [1] | Plant response rating, Corn (corn (Zea mays) [2]) | Corn plant response rating (0 to 100 scale) (corn (Zea mays) [2]) | Plant response rating, Crabgrass, Large [3] | Crabgrass, Large plant response rating (0 to 100 scale) [3] | Plant response rating, Foxtail, Giant [4] | Foxtail, Giant plant response rating (0 to 100 scale) [4] | Plant response rating, Morningglory ([5]; 125 g ai/ha, preemergence, 0 to 100 scale (0 no effect, 100 complete control)) | Morningglory plant response rating (0 to 100 scale) ([5]; Preemergence, 500 g ai/ha, 0 is no effect, 100 is complete control) | Plant response rating, Pigweed [6] | Pigweed plant response rating (0 to 100 scale) [6] | Plant response rating, Velvetleaf [7] | Velvetleaf plant response rating (0 to 100 scale) [7] | Plant response rating, Wheat [8] | Wheat plant response rating (0 to 100 scale) [8] | Plant response rating, Barnyardgrass [9, 23] | Plant response rating, Barnyardgrass [9, 24] | Plant response rating, Corn (corn (Zea mays) [10]; [23]) | Plant response rating, Corn (corn (Zea mays) [10]; [24]) | Plant response rating, Crabgrass, Large [11, 23] | Plant response rating, Crabgrass, Large [11, 24] | Plant response rating, Foxtail, Giant [12, 23] | Plant response rating, Foxtail, Giant [12, 24] | Plant response rating, Morningglory [13, 23] | Plant response rating, Morningglory [13, 24] | Plant response rating, Pigweed [14, 23] | Plant response rating, Pigweed [14, 24] | Plant response rating, Velvetleaf [15, 23] | Plant response rating, Velvetleaf [15, 24] | Plant response rating, Wheat [16, 23] | Plant response rating, Wheat [16, 24] | Plant response rating, Barnyardgrass [17] | Plant response rating, Ducksalad [18] | Plant response rating, Rice (rice (Oryra sativa)) | Plant response rating, Sedge, Umbrella [19]

O=C1NCC(c2cccnc2)C1C(=O)Nc1ccccc1F (racemic) [Compound 363]
10: Plant response rating, Velvetleaf [15, 23]
0: Plant response rating, Barnyardgrass [1] | Barnyardgrass plant response rating (0 to 100 scale) [1] | Plant response rating, Corn (corn (Zea mays) [2]) | Corn plant response rating (0 to 100 scale) (corn (Zea mays) [2]) | Plant response rating, Crabgrass, Large [3] | Crabgrass, Large plant response rating (0 to 100 scale) [3] | Plant response rating, Foxtail, Giant [4] | Foxtail, Giant plant response rating (0 to 100 scale) [4] | Plant response rating, Pigweed [6] | Pigweed plant response rating (0 to 100 scale) [6] | Plant response rating, Velvetleaf [7] | Velvetleaf plant response rating (0 to 100 scale) [7] | Plant response rating, Wheat [8] | Wheat plant response rating (0 to 100 scale) [8] | Plant response rating, Barnyardgrass [9, 23] | Plant response rating, Barnyardgrass [9, 24] | Plant response rating, Corn (corn (Zea mays) [10]; [23]) | Plant response rating, Corn (corn (Zea mays) [10]; [24]) | Plant response rating, Crabgrass, Large [11, 23] | Plant response rating, Crabgrass, Large [11, 24] | Plant response rating, Foxtail, Giant [12, 23] | Plant response rating, Foxtail, Giant [12, 24] | Plant response rating, Morningglory [13, 23] | Plant response rating, Morningglory [13, 24] | Plant response rating, Pigweed [14, 23] | Plant response rating, Pigweed [14, 24] | Plant response rating, Velvetleaf [15, 24] | Plant response rating, Wheat [16, 23] | Plant response rating, Wheat [16, 24] | Plant response rating (scale of 0 to 100), Barnyardgrass ([20]; 31 g ai/ha) | Plant response rating (scale of 0 to 100), Barnyardgrass ([20]; 62 g ai/ha) | Plant response rating (scale of 0 to 100), Barnyardgrass ([20]; 125 g ai/ha) | Plant response rating (scale of 0 to 100), Barnyardgrass ([20]; 250 g ai/ha) | Plant response rating (scale of 0 to 100), Ducksalad ([21]; 31 g ai/ha) | Plant response rating (scale of 0 to 100), Ducksalad ([21]; 62 g ai/ha) | Plant response rating (scale of 0 to 100), Ducksalad ([21]; 125 g ai/ha) | Plant response rating (scale of 0 to 100), Ducksalad ([21]; 250 g ai/ha) | Plant response rating (scale of 0 to 100), Rice (rice (Oryza sativa); 31 g ai/ha) | Plant response rating (scale of 0 to 100), Rice (rice (Oryza sativa); 62 g ai/ha) | Plant response rating (scale of 0 to 100), Rice (rice (Oryza sativa); 125 g ai/ha) | Plant response rating (scale of 0 to 100), Rice (rice (Oryza sativa); 250 g ai/ha) | Plant response rating (scale of 0 to 100), Sedge, Umbrella ([22]; 31 g ai/ha) | Plant response rating (scale of 0 to 100), Sedge, Umbrella ([22]; 62 g ai/ha) | Plant response rating (scale of 0 to 100), Sedge, Umbrella ([22]; 125 g ai/ha) | Plant response rating (scale of 0 to 100), Sedge, Umbrella ([22]; 250 g ai/ha)
